Inhibition data for ten compounds are collected here from ChEMBL document CHEMBL5665443, “Enzyme Inhibitor Single Concentration assay results for EUbOPEN Chemogenomics Library” (2024).

Experiment [1] deals with N-glycosylase/DNA lyase (Homo sapiens) (UniProt O15527).
Description: Inhibition of OGG1 by quantifying inhibition of OGG1-mediated cleavage and dissociation of quenched duplex DNA oligonucleotides, measured as fluorescence at 594 nm. To generate a functional strand incision and increase turn-over this assay is coupled to APE1.
In experiment [2] the target is T1, Endonuclease III-like protein 1 (Homo sapiens) (UniProt P78549).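 Also: enzyme assay tracking NTHL1 cutting and release of a quenched double-stranded DNA oligo substrate, read as fluorescence at 594 nm.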
T1 sequence (whole entry): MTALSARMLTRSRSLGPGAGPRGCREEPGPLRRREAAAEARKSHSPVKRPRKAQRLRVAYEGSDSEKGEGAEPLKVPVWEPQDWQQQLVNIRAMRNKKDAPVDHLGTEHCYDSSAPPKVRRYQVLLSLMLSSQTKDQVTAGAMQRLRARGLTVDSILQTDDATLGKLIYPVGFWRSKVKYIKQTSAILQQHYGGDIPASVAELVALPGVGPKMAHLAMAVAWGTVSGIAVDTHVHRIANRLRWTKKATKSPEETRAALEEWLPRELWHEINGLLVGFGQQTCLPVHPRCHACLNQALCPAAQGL
The note with it: Hit No.
Description: Inhibition of NTHL1 by quantifying inhibition of NTHL1-mediated cleavage and dissociation of quenched duplex DNA oligonucleotides, measured as fluorescence at 594 nm.

Experiment [3] has as its target Methyl-CpG-binding domain protein 4 (Homo sapiens) (UniProt O95243). As to conditions: Hit No.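 Also: MBD4 activity read as fluorescence at 594 nm from cleavage and release of a quenched duplex DNA oligonucleotide, with APE1 coupled to incise the strand and raise turnover.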
Description: Inhibition of MBD4 by quantifying inhibition of MBD4-mediated cleavage and dissociation of quenched duplex DNA oligonucleotides, measured as fluorescence at 594 nm. To generate a functional strand incision and increase turn-over this assay is coupled to APE1.
Experiment [4] addresses Uracil-DNA glycosylase (Homo sapiens) (UniProt P13051). The note with it: Hit No.
Description: Inhibition of UNG by quantifying inhibition of UNG-mediated cleavage and dissociation of quenched duplex DNA oligonucleotides, measured as fluorescence at 594 nm. To generate a functional strand incision and increase turn-over this assay is coupled to APE1.
The target in experiment [5] is Endonuclease 8-like 1 (Homo sapiens) (UniProt Q96FI4). As to conditions: Hit No.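 Also: fluorescence at 594 nm from quenched duplex DNA oligonucleotides released by NEIL1 cleavage and strand separation, reported as reduction of this enzyme activity.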
Description: Inhibition of NEIL1 by quantifying inhibition of NEIL1-mediated cleavage and dissociation of quenched duplex DNA oligonucleotides, measured as fluorescence at 594 nm.
Experiment [6] addresses T2, Endonuclease 8-like 2 (Homo sapiens) (UniProt Q969S2).
T2 sequence (whole entry): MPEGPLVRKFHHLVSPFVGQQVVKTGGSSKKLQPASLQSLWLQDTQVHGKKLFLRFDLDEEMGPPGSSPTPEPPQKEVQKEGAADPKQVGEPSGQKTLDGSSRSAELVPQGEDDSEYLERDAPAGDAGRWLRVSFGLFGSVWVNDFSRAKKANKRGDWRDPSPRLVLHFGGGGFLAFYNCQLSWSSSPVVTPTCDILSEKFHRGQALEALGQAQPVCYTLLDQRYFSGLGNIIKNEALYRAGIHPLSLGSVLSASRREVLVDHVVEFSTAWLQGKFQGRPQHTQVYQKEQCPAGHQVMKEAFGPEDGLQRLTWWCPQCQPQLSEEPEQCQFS
As to conditions: Hit No.
Description: Inhibition of NEIL2 by quantifying inhibition of NEIL2-mediated cleavage and dissociation of quenched duplex DNA oligonucleotides, measured as fluorescence at 594 nm.

The target in experiment [7] is T3, Single-strand selective monofunctional uracil DNA glycosylase (Homo sapiens) (UniProt Q53HV7).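 Also: enzymatic SMUG1 assay coupled with APE1, reading fluorescence at 594 nm released when a quenched double-stranded DNA oligonucleotide substrate is cleaved and separated.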
T3 sequence (whole entry): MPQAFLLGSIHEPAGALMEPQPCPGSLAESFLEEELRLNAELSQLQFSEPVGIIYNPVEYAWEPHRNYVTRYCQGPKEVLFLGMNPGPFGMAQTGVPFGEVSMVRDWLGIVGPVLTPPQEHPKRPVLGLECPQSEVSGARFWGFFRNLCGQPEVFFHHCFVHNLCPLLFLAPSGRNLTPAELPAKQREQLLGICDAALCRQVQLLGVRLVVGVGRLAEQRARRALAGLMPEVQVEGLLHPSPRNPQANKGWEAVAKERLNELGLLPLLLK
As to conditions: Hit No.
Description: Inhibition of SMUG1 by quantifying inhibition of SMUG1-mediated cleavage and dissociation of quenched duplex DNA oligonucleotides, measured as fluorescence at 594 nm. To generate a functional strand incision and increase turn-over this assay is coupled to APE1.

Experiment [8] has as its target G/T mismatch-specific thymine DNA glycosylase (Homo sapiens) (UniProt Q13569). As to conditions: Hit No.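 Also: human TDG cleavage of quenched duplex DNA oligonucleotides coupled to APE1, strand release read as fluorescence at 594 nm, inhibition of TDG activity.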
Description: Inhibition of TDG by quantifying inhibition of TDG-mediated cleavage and dissociation of quenched duplex DNA oligonucleotides, measured as fluorescence at 594 nm. To generate a functional strand incision and increase turn-over this assay is coupled to APE1.
The mark [9] stands for this setting: Compound Concentration 10.0 uM, Hit No.
The mark [10] stands for this setting: Compound Concentration 1.0 uM, Hit No.

Sequence of Methyl-CpG-binding domain protein 4 (Homo sapiens) (O95243 whole entry, the tested form may be a part): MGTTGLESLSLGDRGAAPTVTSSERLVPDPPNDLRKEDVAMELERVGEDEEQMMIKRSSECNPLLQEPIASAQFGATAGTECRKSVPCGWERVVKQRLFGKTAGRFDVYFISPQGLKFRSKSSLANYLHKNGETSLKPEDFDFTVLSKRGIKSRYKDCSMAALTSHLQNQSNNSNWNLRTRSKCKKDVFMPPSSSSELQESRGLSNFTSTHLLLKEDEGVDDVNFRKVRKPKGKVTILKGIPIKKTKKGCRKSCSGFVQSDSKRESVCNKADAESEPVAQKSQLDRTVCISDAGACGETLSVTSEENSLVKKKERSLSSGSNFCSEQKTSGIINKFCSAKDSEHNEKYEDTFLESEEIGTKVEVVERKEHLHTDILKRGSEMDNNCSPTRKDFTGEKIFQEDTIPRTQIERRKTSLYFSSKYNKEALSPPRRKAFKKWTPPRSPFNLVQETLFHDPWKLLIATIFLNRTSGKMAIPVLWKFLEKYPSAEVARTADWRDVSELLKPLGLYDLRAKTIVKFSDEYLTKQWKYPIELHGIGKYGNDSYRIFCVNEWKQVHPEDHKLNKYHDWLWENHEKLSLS
Sequence of N-glycosylase/DNA lyase (Homo sapiens) (O15527 whole entry): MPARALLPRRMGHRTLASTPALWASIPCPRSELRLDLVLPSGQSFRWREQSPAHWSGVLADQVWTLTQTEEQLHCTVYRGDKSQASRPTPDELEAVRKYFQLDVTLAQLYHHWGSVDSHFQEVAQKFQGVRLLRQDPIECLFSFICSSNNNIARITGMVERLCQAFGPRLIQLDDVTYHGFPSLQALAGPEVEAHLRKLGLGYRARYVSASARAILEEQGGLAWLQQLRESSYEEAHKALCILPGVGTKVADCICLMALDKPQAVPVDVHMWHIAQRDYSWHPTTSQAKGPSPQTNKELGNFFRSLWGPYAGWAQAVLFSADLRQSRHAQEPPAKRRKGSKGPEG
Sequence of G/T mismatch-specific thymine DNA glycosylase (Homo sapiens) (Q13569 whole entry): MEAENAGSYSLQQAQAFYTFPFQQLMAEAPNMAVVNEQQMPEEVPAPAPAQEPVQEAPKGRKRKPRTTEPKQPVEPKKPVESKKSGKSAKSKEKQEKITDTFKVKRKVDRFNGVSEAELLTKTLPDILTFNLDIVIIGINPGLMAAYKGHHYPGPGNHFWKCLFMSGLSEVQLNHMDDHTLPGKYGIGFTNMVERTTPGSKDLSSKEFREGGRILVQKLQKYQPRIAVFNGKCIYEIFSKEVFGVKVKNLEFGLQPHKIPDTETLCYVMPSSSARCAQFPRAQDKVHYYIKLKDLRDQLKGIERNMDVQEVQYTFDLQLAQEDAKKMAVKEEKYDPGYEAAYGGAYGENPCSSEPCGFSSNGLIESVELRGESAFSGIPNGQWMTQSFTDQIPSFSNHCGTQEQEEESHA
Sequence of Uracil-DNA glycosylase (Homo sapiens) (P13051 whole entry): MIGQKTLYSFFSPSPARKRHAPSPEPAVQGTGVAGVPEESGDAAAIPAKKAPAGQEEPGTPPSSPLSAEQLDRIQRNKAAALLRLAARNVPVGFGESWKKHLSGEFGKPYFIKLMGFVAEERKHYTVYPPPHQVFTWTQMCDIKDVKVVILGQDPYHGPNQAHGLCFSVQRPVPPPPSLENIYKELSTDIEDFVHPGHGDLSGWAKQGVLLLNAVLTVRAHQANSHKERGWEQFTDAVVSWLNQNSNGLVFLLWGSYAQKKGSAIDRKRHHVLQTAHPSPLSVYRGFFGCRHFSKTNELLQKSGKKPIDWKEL
Sequence of Endonuclease 8-like 1 (Homo sapiens) (Q96FI4 whole entry): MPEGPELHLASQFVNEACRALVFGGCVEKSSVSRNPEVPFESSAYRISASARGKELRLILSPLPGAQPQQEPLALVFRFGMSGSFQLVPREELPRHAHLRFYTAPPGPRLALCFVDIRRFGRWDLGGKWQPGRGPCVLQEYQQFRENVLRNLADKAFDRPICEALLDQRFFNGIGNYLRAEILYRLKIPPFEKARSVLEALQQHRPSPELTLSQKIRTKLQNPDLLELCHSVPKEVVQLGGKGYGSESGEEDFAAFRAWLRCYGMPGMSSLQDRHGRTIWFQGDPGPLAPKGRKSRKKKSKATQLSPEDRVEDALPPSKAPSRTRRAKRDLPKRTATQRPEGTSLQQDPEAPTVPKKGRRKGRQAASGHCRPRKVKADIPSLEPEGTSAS

One may read the inhibition as the relative decrease from the control value, in per cent. Regarding `O=C1NCN(c2ccccc2)C12CCN(CC1COc3ccccc3O1)CC2` (stereo not given), the inhibition is -5.28% in experiment [1] (setting [9]); 2.66% in experiment [2] (Compound Concentration 10.0 uM); -3.04% in experiment [3] (Compound Concentration 10.0 uM); -8.19% in experiment [4] (Compound Concentration 10.0 uM); -5.84% in experiment [5] (Compound Concentration 10.0 uM); -3.23% in experiment [6] (Compound Concentration 10.0 uM). Also, the results for the inhibition in experiment [7] (Compound Concentration 10.0 uM) and in experiment [8] (Compound Concentration 10.0 uM) were 1.76% and 2.98%, respectively.
Take `O=C(O)c1ccc2cc(-c3ccc(O)c(C45CC6CC(CC(C6)C4)C5)c3)ccc2c1`: the inhibition is 85.9% in experiment [1] (Compound Concentration 10.0 uM, Hit Yes); -1.29% in experiment [2] (Compound Concentration 10.0 uM); 57.8% in experiment [3] (Compound Concentration 10.0 uM); 4.34% in experiment [4] (Compound Concentration 10.0 uM); -4.23% in experiment [5] (Compound Concentration 10.0 uM); -9.42% in experiment [6] (Compound Concentration 10.0 uM). In addition, the inhibition in experiment [7] (Compound Concentration 10.0 uM) was 17.5%; in experiment [8] (Compound Concentration 10.0 uM), 50.7%.
On to `Cc1c(NC(=O)c2cc(C(N)=O)nc3cc(F)ccc23)c(C(F)(F)F)nn1Cc1ccc(C#N)cc1`, for which the inhibition in experiment [1] (setting [9]) was 3.97%; in experiment [2] (Compound Concentration 10.0 uM), -9.83%; in experiment [3] (Compound Concentration 10.0 uM), 51.7%; in experiment [4] (Compound Concentration 10.0 uM), 1.44%; in experiment [5] (Compound Concentration 10.0 uM) it was -9.07%; in experiment [6] (Compound Concentration 10.0 uM) it was 8.19%. Moreover, the inhibition in experiment [7] (Compound Concentration 10.0 uM) came out at 19.9%; in experiment [8] (Compound Concentration 10.0 uM), 35.6%.
For `CC[C@@H]1[C@H](F)C(=O)N[C@@H]1COc1nccc2cc(C(N)=O)c(OC)cc12`, the inhibition was -7.95% in experiment [1] (setting [10]); 2.88% in experiment [2] (Compound Concentration 1.0 uM); 1.45% in experiment [3] (Compound Concentration 1.0 uM); -6.54% in experiment [4] (Compound Concentration 1.0 uM); -3.17% in experiment [5] (Compound Concentration 1.0 uM); -7.57% in experiment [6] (Compound Concentration 1.0 uM). The figures for the inhibition in experiment [7] (Compound Concentration 1.0 uM) and in experiment [8] (Compound Concentration 1.0 uM) were 2.52% and 35.2%, respectively.
`CC(=O)Nc1ccc(-c2cc(-c3ccccc3)nc3cc(C(=O)NCCCn4ccnc4)nn23)cc1`: the inhibition was -1.79% in experiment [1] (setting [9]); 3.31% in experiment [2] (Compound Concentration 10.0 uM); 52.7% in experiment [3] (Compound Concentration 10.0 uM); 5.92% in experiment [4] (Compound Concentration 10.0 uM); -3.92% in experiment [5] (Compound Concentration 10.0 uM); -6.36% in experiment [6] (Compound Concentration 10.0 uM). The inhibition in experiment [7] (Compound Concentration 10.0 uM) was determined as 10.4%; in experiment [8] (Compound Concentration 10.0 uM), 38.6%.
As to `COc1cc(O)c(C(CC(=O)N2C[C@H](C)C[C@H](C)C2)c2ccc3c(c2)OCO3)c(OC)c1` (stereo not given in full), the inhibition in experiment [1] (setting [9]) is 10.8%; in experiment [2] (Compound Concentration 10.0 uM) it was -3.92%; in experiment [3] (Compound Concentration 10.0 uM) it was 55.4%; in experiment [4] (Compound Concentration 10.0 uM) it was -0.808%; in experiment [5] (Compound Concentration 10.0 uM), -4.23%; in experiment [6] (Compound Concentration 10.0 uM) it was -7.38%. Besides, the inhibition in experiment [7] (Compound Concentration 10.0 uM) amounted to 8.36%; in experiment [8] (Compound Concentration 10.0 uM) it was 58.3%.
In the case of `Cc1cccc(CN2CCN(C(c3ccccc3)c3ccc(Cl)cc3)CC2)c1` (stereo not given), the inhibition in experiment [1] (setting [9]) stood at 3.33%; in experiment [2] (Compound Concentration 10.0 uM), 4.63%; in experiment [3] (Compound Concentration 10.0 uM) it was 55.1%; in experiment [4] (Compound Concentration 10.0 uM) it was 5.91%; in experiment [5] (Compound Concentration 10.0 uM), 5.62%; in experiment [6] (Compound Concentration 10.0 uM) it was 8.7%. The inhibition in experiment [7] (Compound Concentration 10.0 uM) stood at 10.2%; in experiment [8] (Compound Concentration 10.0 uM), 31.2%.
In the case of `NS(=O)(=O)c1cc(NC(=O)C2(c3ccccc3Cl)CC2)ccc1Oc1cccc(Cl)c1`, the inhibition is 21.8% in experiment [1] (setting [9]); -7.86% in experiment [2] (Compound Concentration 10.0 uM); 26.3% in experiment [3] (Compound Concentration 10.0 uM); -3.29% in experiment [4] (Compound Concentration 10.0 uM); -2.56% in experiment [5] (Compound Concentration 10.0 uM); 3.34% in experiment [6] (Compound Concentration 10.0 uM). Besides, the inhibition is 17.9% in experiment [7] (Compound Concentration 10.0 uM) and 35.3% in experiment [8] (Compound Concentration 10.0 uM).
For `FC(F)(F)c1ccc2c(c1)nc(-c1cccnc1)n2C1CC1`, the inhibition in experiment [1] (setting [9]) is -3.61%; in experiment [2] (Compound Concentration 10.0 uM) it was -7.86%; in experiment [3] (Compound Concentration 10.0 uM), 61.4%; in experiment [4] (Compound Concentration 10.0 uM), -0.0445%; in experiment [5] (Compound Concentration 10.0 uM), -3.77%; in experiment [6] (Compound Concentration 10.0 uM), -9.67%. Moreover, the results for the inhibition in experiment [7] (Compound Concentration 10.0 uM) and in experiment [8] (Compound Concentration 10.0 uM) were 3.68% and 39.3%, respectively.
With `COc1cc(N[C@@H]2CCCC[C@]2(O)C(F)(F)F)ccc1F`, the inhibition in experiment [1] (setting [10]) is 1.9%; in experiment [2] (Compound Concentration 1.0 uM), -3.26%; in experiment [3] (Compound Concentration 1.0 uM), 65.4%; in experiment [4] (Compound Concentration 1.0 uM) it was 0.673%; in experiment [5] (Compound Concentration 1.0 uM), 1.98%; in experiment [6] (Compound Concentration 1.0 uM), 4.36%. For the same compound, the inhibition stood at 14.3% in experiment [7] (Compound Concentration 1.0 uM) and 50.9% in experiment [8] (Compound Concentration 1.0 uM).
